# Patent publication US7491711B2, “Methods of treatment using 3-desoxy vitamin D3 analogs” (Roche Palo Alto LLC, priority 2001, dated 2009)
# Marks after values point to notes of the source that are not given here.
# Legend:
# [1] = system: rat ovariectomy model (post menopausal osteopenia); assay: Bone mineral density in vivo (Dual Energy X-ray Absorptiometry), rat ovariectomy model; details: OVX rats
# Protocol: (§1) Comparison of the efficacy of Compound 7 to that of 1,25-dihydroxy vitamin D3 (i.e., VD3), was made using the standard animal model for post menopausal osteopenia, the rat ovariectomy model. Three month old rats weighing 285gm were ovariectomized (OVX), and then treated for 8 weeks beginning 1 week post OVX. Drugs were administered once/day orally in miglyol (medium chain triglyceride) vehicle. Blood and urine samples were collected at the 3 wk and 6 wk timepoint, and bone mineral density (BMD) was determined in vivo at 6 wk using Dual Energy X-ray Absorptiometry (Hologic QDR-4500™ Bone Scanner). At 8 weeks, the animals were sacrificed, and the lumbar vertebrae and femur bones removed for ex vivo BMD determination (Lunar PixiMus™ Bone Scanner) and biomechanical testing for strength. Data for each compound are reported in the accompanying tables for the highest safe doses.
# (§2) The doses being compared all gave 3 wk serum calcium levels of 9.3 mg/dl, and 6 wk levels of 9.8±0.1 mg/dl. At these doses, the urinary calcium output per 24 hr sample was the same for the 0.4 nmol/kg dose of VD3 and the 0.5 nmol/kg dose of Compound 7. […] These doses represent those expected to give maximal efficacy achievable safely, as higher doses of each compound are known to be hypercalcemic. […] Failure Load, the amount of force needed to fracture the L5 vertebra, was determined in axial compression testing.
# [2] = system: rat ovariectomy model (post menopausal osteopenia); assay: L5 vertebral body biomechanics (axial compression testing), rat ovariectomy model; type: in vivo; details: OVX rats
# Protocol: as §1, §2
# [3] = system: patients commencing long term treatment with prednisone or prednisolone; details: 0.5 to 1.0 micrograms/day plus calcium 1000 mg/day, with or without intranasal calcitonin 400 IU/day; cited from earlier work
# [4] = Urinary calcium in the rat ovariectomy model (safety); type: in vivo; details: OVX rats; for urinary calcium output per 24 hr sample, compared between the two substances: 0.4 nmol/kg dose of VD3 and 0.5 nmol/kg dose of Compound 7
# Protocol: as §1, §2
# [5] = system: rat ovariectomy model (post menopausal osteopenia); assay: L5 bone density ex vivo (BMD, BMC), rat ovariectomy model; type: in vivo; details: OVX rats
# Protocol: as §1
# [6] = system: women with postmenopausal osteoporosis; details: cited from earlier work
# [7] = Serum calcium in the rat ovariectomy model (safety); type: in vivo; details: OVX rats
# Protocol: as §1, §2
# [8] = system: rat ovariectomy model (post menopausal osteopenia); assay: Urinary deoxypyridinolines (marker of bone resorption), rat ovariectomy model; type: in vivo; details: OVX rats
# Protocol: as §1, §2
# [9] = Week 6, 0.012 nmol/kg once/day orally
# [10] = Week 6, 0.04 nmol/kg once/day orally
# [11] = Week 8, 0.012 nmol/kg once/day orally
# [12] = Week 3, 0.012 nmol/kg once/day orally
# [13] = Week 3, 0.04 nmol/kg once/day orally
# [14] = Week 6, 0.5 nmol/kg once/day orally
# [15] = Week 8, 0.5 nmol/kg once/day orally
# [16] = Week 3, 0.5 nmol/kg once/day orally
compound,measurement,setting,value
"C=C1/C(=C\C=C2/CCC[C@]3(C)[C@@H]([C@H](C)CCCC(C)(C)O)CC[C@@H]23)C[C@@H](O)C[C@@H]1O [VitD, 1,25-dihydroxy vitamin D3]","PERCENT BMD > OVX CONTROL in vivo, Distal Femur, Mean",[1]; [9],2.8 ++ PERCENT
same,"PERCENT BMD > OVX CONTROL in vivo, L2-L4 Vertebrae, Mean",[1]; [9],3.3 ++ PERCENT
same,"PERCENT BMD > OVX CONTROL in vivo, L5 vertebrae, Mean",[1]; [9],2.7 ++ PERCENT
same,"PERCENT BMD > OVX CONTROL in vivo, Prox Femur, Mean",[1]; [9],3.5 ns PERCENT
same,"PERCENT BMD > OVX CONTROL in vivo, Whole Femur, Mean",[1]; [9],3.3 + PERCENT
same,"PERCENT BMD > OVX CONTROL in vivo, Distal Femur, Mean",[1]; [10],2.8 ++ PERCENT
same,"PERCENT BMD > OVX CONTROL in vivo, L2-L4 Vertebrae, Mean",[1]; [10],5.4 * PERCENT
same,"PERCENT BMD > OVX CONTROL in vivo, L5 vertebrae, Mean",[1]; [10],4.9 ++ PERCENT
same,"PERCENT BMD > OVX CONTROL in vivo, Prox Femur, Mean",[1]; [10],0.7 ++ PERCENT
same,"PERCENT BMD > OVX CONTROL in vivo, Whole Femur, Mean",[1]; [10],1.9 ++ PERCENT
same,"L5 Vertebral Body BIOMECHANICS, Failure Load, Mean",[2]; [11],342 * N
same,steroid-induced bone loss,[3],prevented steroid-induced bone loss
same,"urinary calcium output per 24 hr sample, compared between the two substances",[4],the same
same,"URINARY CALCIUM, Mean",[4]; [12],0.31 ** MG/MMOL Creatineine/day
same,"URINARY CALCIUM, Mean",[4]; [13],0.51 **+ MG/MMOL Creatineine/day
same,"URINARY CALCIUM, Mean",[4]; [9],0.43 ** MG/MMOL Creatineine/day
same,"URINARY CALCIUM, Mean",[4]; [10],0.71 **++ MG/MMOL Creatineine/day
same,"L5 Bone Density Ex Vivo, BMC, Mean",[5]; [11],0.035 ns g
same,"L5 Bone Density Ex Vivo, BMD, Mean",[5]; [11],0.103 ++ g/cm^2
same,lower rate of new vertebral fractures compared with patients receiving elemental calcium 1000 mg/day,"[6]; mild to moderate disease, 0.25 microgram twice daily, after 3 years of treatment",3 fold
same,tolerability,"[6]; patients, overall",well tolerated
same,"SERUM CALCIUM, Mean",[7]; [12],9.3 nd mg/dl
same,"SERUM CALCIUM, Mean",[7]; [13],9.3 ns mg/dl
same,"SERUM CALCIUM, Mean",[7]; [9],9.8 **+ mg/dl
same,"SERUM CALCIUM, Mean",[7]; [10],9.7 ** mg/dl
same,"URINARY D-PYD, Mean",[8]; [12],0.81 ++ nM/mM Creatinine
same,"URINARY D-PYD, Mean",[8]; [13],0.75 ++ nM/mM Creatinine
same,"URINARY D-PYD, Mean",[8]; [9],0.78 ++ nM/mM Creatinine
same,"URINARY D-PYD, Mean",[8]; [10],0.76 ++ nM/mM Creatinine
C=C1/C(=C\C=C2/CCC[C@]3(C)[C@@H](C4(C/C=C/C(O)(C(F)(F)F)C(F)(F)F)CC4)CC[C@@H]23)CCC[C@@H]1O [Compound 27],"PERCENT BMD > OVX CONTROL in vivo, Distal Femur, Mean",[1]; [14],8.5 ** PERCENT
same,"PERCENT BMD > OVX CONTROL in vivo, L2-L4 Vertebrae, Mean",[1]; [14],10.3 ** PERCENT
same,"PERCENT BMD > OVX CONTROL in vivo, L5 vertebrae, Mean",[1]; [14],8.7 ** PERCENT
same,"PERCENT BMD > OVX CONTROL in vivo, Prox Femur, Mean",[1]; [14],5.7 ** PERCENT
same,"PERCENT BMD > OVX CONTROL in vivo, Whole Femur, Mean",[1]; [14],6.3 ** PERCENT
same,"BMD at all of the bone sites listed, compared with VD3",[1]; doses which give equivalent serum calcium levels,significantly higher
same,vertebral bone strength,[2]; L5 vertebra,stronger vertebral bone
same,"L5 Vertebral Body BIOMECHANICS, Failure Load, Mean",[2]; [15],419 ** N
same,"Failure Load, force needed to fracture the L5 vertebra, compared with VD3","[2]; axial compression testing, highest safe doses",Significantly more force was needed
same,"urinary calcium output per 24 hr sample, compared between the two substances",[4],the same
same,"URINARY CALCIUM, Mean",[4]; [16],0.51 **+ MG/MMOL Creatineine/day
same,"URINARY CALCIUM, Mean",[4]; [14],0.72 **++ MG/MMOL Creatineine/day
same,"L5 Bone Density Ex Vivo, BMC, Mean",[5]; [15],0.039 ** g
same,"L5 Bone Density Ex Vivo, BMD, Mean",[5]; [15],0.112 ** g/cm^2
same,"SERUM CALCIUM, Mean",[7]; [16],9.3 ns mg/dl
same,"SERUM CALCIUM, Mean",[7]; [14],9.9 **+ mg/dl
same,"Urinary deoxy-pyridinolines (marker of bone resorption), compared with VD3",[8]; 6 weeks,significantly less
same,"URINARY D-PYD, Mean",[8]; [16],0.65 *+ nM/mM Creatinine
same,"URINARY D-PYD, Mean",[8]; [14],0.57 **+ nM/mM Creatinine
